Common to all, as to test: NCI-60 cell line screen, 48 h
Assay [1] has as its system CAKI-1 renal.
The subject of assay [2] is COLO 205 colon.
Assay [3] has as its system NCI-H23 lung.
For assay [4], the system named is NCI/ADR-RES ovarian.
Assay [5] deals with OVCAR-3 ovarian.
The test system of assay [6] is SK-MEL-2 melanoma.
Assay [7] has as its system SK-MEL-5 melanoma.
Assay [8] has as its system SN12C renal.
Assay [9] concerns SNB-75 CNS.
Assay [10] concerns U251 CNS.

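Method: 48-hour compound exposure of cells in 96-well plates, five concentrations, linear interpolation of endpoints. GI50 is the concentration that inhibits growth by half. TGI: total growth inhibition.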 Some results are limits rather than exact numbers.

Consider `O=c1cccc(Cl)[nH]1`, for which the TGI in [1], in [2], in [3], in assay [4], in assay [5] and in assay [6] was greater than 100 µM throughout. For the same compound, the TGI in [7], in assay [8], in [9] and in [10] was greater than 100 µM throughout.

For the compound `CNC(=O)OCc1nc(SC)n(C)c1COC(=O)NC`, the TGI is 497 µM in assay [1]; 295 µM in [2]; 329 µM in [3]; 535 µM in assay [4]; 444 µM in [5]; 290 µM in [6]. Besides, the TGI in assay [7] stood at 327 µM; in assay [8], 309 µM; in [9], 349 µM; in assay [10] it was 599 µM.

Regarding `COc1ccccc1C(=O)N(Cc1ccccc1)c1ccc(Cl)c(C(=O)OC(C)C)c1`, the TGI is 71.1 µM in assay [1]; 50.9 µM in [2]; greater than 82.8 µM in assay [3]; 85.6 µM in assay [4]; greater than 100 µM in assay [5]; 40.5 µM in assay [6]. The TGI was 26.1 µM in assay [7], greater than 100 µM in assay [8], greater than 77.5 µM in assay [9] and greater than 100 µM in assay [10].

As to `CCOC1Oc2ccc(C)cc2C(=O)/C1=C\Nc1ccc(S(N)(=O)=O)cc1` (stereo unspecified), the GI50 in assay [1] was 10.6 µM; in assay [2] it was 16.8 µM; in assay [3], 2.92 µM; in assay [4], 6.14 µM; in assay [5] it was 12.5 µM; in [6], 24.3 µM. In addition, the GI50 in assay [7] was 7.79 µM; in assay [8], 11.6 µM; in assay [9], 18.5 µM; in [10], 12.9 µM. Further, the TGI in assay [1] was 23.3 µM; in [2], 45.3 µM; in [3], 12.4 µM; in assay [4], 18.5 µM; in [5], 36.5 µM; in assay [6], greater than 50 µM. Also, the TGI in [7] was 17.3 µM; in [8] it was 31.9 µM; in assay [9], greater than 50 µM; in assay [10], greater than 50 µM.

Take `OCCN(CO)CO`: the TGI in assay [1], in assay [2], in assay [3], in [4], in [5] and in [6] was greater than 100 µM throughout. Moreover, the TGI in assay [7], in [8], in assay [9] and in assay [10] was greater than 100 µM each time.

Regarding `CC1OC(OC2C(O)C(O)C(O)C(O)C2O)C(N)CC1N=C(N)C(=O)O` (stereo unspecified), the TGI in assay [1], in assay [2], in assay [3], in assay [4], in [5] and in [6] was greater than 100 µM in each case. Also, the TGI in assay [7], in [8], in assay [9] and in assay [10] was greater than 100 µM in each case.

On to `CCOC(=O)/C(=C\c1ccc2ccccc2c1)P(=O)(OCC)OCC`, for which the GI50 in [1] is 3.06 µM; in assay [2], 2.26 µM; in [3], 1.95 µM; in assay [4], 3.15 µM; in [5] it was 1.95 µM; in [6], 2.16 µM. Besides, the GI50 is 2.55 µM in assay [7], 2.85 µM in assay [8], 2.57 µM in assay [9] and 2.64 µM in assay [10]. Further, the TGI in [1] amounted to 12 µM; in assay [2], 4.89 µM; in [3], 4.78 µM; in assay [4], 11.2 µM; in assay [5] it was 4.07 µM; in assay [6], 5.22 µM. The TGI in [7] is 6.5 µM; in [8], 8.89 µM; in assay [9] it was 14.8 µM; in assay [10] it was 7.86 µM.

`COc1cccc(-c2nc3sccn3c2-c2ccnc(NCCCNS(=O)(=O)c3ccccc3)c2)c1`: the GI50 in [1] is 2.81 µM; in assay [2], 3.01 µM; in [3] it was 2.99 µM; in [4] it was 2.62 µM; in assay [5] it was 3.3 µM; in assay [6], 2.87 µM. The GI50 in [7] is 1.88 µM; in [8], 2.76 µM; in [9], 1.55 µM; in [10], 4.55 µM. For the same compound, the TGI in assay [1] is greater than 100 µM; in assay [2], greater than 100 µM; in assay [3] it was greater than 100 µM; in [4], 8.7 µM; in assay [5], greater than 100 µM; in [6], 8.85 µM. The TGI in [7] was 3.77 µM; in assay [8] it was greater than 100 µM; in [9], 8.08 µM; in assay [10], greater than 100 µM.

For `O=c1[nH]cnc2n[nH]nc12`, the TGI is greater than 100 µM in assay [1]; greater than 100 µM in [2]; greater than 100 µM in [3]; greater than 100 µM in [4]; 63.8 µM in [5]; 32 µM in assay [6]. For the same compound, the TGI in [7] is greater than 100 µM; in [8] it was greater than 100 µM; in assay [9], greater than 69.8 µM; in assay [10], greater than 100 µM. Moreover, in assay [4], the GI50 was 0.472 µM.

With `CCc1ccc2c(c1)N(CCO)C1=C(C(=O)OC1)C2c1cc(OC)c(OC)c(OC)c1` (stereo unspecified), the GI50 in [1] is 0.599 µM; in assay [2], 0.151 µM; in [3] it was 0.219 µM; in [4], 0.974 µM; in [5] it was 0.112 µM; in [6], 0.143 µM. For the same compound, the GI50 is 0.126 µM in assay [7], 0.345 µM in assay [8], 0.134 µM in assay [9] and 0.182 µM in assay [10]. Also, the TGI was greater than 50 µM in [1]; 0.437 µM in assay [2]; greater than 14.4 µM in assay [3]; 6.65 µM in assay [4]; 0.274 µM in assay [5]; 0.469 µM in assay [6]. Also, the TGI is 0.581 µM in [7], greater than 50 µM in [8], greater than 50 µM in assay [9] and greater than 50 µM in assay [10].

The record behind these values is PubChem BioAssay (NCI).
